Measurements: US20250129078A1, “ERBB2 INHIBITORS” (Cogent Biosciences, Inc., priority 2023, published 2025)
Where a name gives a salt, the structure may show the parent alone.

Key:
ErbB2 V777L = ErbB2 V777L (Homo sapiens (Human), UniProt P04626, V777L); assay: ErbB enzyme assay (CisBio HTRF-KinEASE-TK), ErbB2 V777L; format: biochemical
Procedure, shortened: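 HTRF KinEASE-TK tyrosine-kinase read-out of substrate phosphorylation after a final 1 h at ambient temperature, from the 655/620 nm emission ratio.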

EGFR WT = EGFR WT (Homo sapiens (Human), UniProt P00533); assay: ErbB enzyme assay (CisBio HTRF-KinEASE-TK), EGFR WT; format: biochemical; details: ATP at Km (25 μM), 1 h incubation
Procedure, shortened: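 Potency comes from a homogeneous time-resolved fluorescence kinase format measuring tyrosine substrate phosphorylation. Reactions and detection steps each run 1 h at ambient temperature. IC50 values are interpolated from 4-parameter logistic fits of percent-of-control data.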

EGFR wild type = EGFR wild type (Homo sapiens (Human), UniProt P00533); assay: ErbB cellular phosphorylation assay (phospho-EGFR ELISA), HEK-293 cells expressing EGFR wild type, EGF stimulated; format: cell-based; details: 1 h treatment
Procedure: (§1) HEK-293 cells were engineered to constitutively express ErbB2 mutant L755S or EGFR wild type (constructs obtained from GenScript, Piscataway, NJ). Cells were seeded in poly-D-lysine coated, 96-well plates at a density of 50,000 cells/well in complete medium (DMEM supplemented with 10% fetal bovine serum and G418) and incubated for 24 h at 37° C., 5% CO2 prior to treatment. Cells were treated with compound using three-fold dilutions at final concentrations ranging from […] for 1 h at 37° C., 5% CO2. EGFR-WT cells were stimulated with 500 ng/mL recombinant human EGF (R&D Systems, 236-EG) for an additional 5 min. After compound incubation, medium was removed from the plate, and cells were lysed in buffer containing protease and phosphatase inhibitors ([…]). Cell lysates were analyzed by enzyme-linked immunosorbent assay (ELISA). The ELISAs were performed to measure phosphorylated ErbB2 or phosphorylated EGFR levels, respectively (R&D Systems, DYC-1768, Human Phospho-ErbB2 DuoSet ELISA; DYC1095, Human Phospho-EGFR DuoSet IC ELISA) according to the manufacturer's instructions. Absorbance was measured at 450 nm using a BioTek Cytation 5 plate reader (Agilent, Santa Clara, CA) and IC50 values were calculated using a 4-parameter fit.

ErbB2 mutant L755S = ErbB2 mutant L755S (Homo sapiens (Human), UniProt P04626, L755S); assay: ErbB cellular phosphorylation assay (phospho-ErbB2 ELISA), HEK-293 cells expressing ErbB2 L755S; format: cell-based; details: 1 h treatment
Procedure: as §1, with “Cells” for “HEK-293 cells were engineered to constitutively express ErbB2 mutant L755S or EGFR wild type (constructs obtained from GenScript, Piscataway, NJ). Cells”

Chain of ErbB2 mutant L755S (P04626 23-1255 L755S): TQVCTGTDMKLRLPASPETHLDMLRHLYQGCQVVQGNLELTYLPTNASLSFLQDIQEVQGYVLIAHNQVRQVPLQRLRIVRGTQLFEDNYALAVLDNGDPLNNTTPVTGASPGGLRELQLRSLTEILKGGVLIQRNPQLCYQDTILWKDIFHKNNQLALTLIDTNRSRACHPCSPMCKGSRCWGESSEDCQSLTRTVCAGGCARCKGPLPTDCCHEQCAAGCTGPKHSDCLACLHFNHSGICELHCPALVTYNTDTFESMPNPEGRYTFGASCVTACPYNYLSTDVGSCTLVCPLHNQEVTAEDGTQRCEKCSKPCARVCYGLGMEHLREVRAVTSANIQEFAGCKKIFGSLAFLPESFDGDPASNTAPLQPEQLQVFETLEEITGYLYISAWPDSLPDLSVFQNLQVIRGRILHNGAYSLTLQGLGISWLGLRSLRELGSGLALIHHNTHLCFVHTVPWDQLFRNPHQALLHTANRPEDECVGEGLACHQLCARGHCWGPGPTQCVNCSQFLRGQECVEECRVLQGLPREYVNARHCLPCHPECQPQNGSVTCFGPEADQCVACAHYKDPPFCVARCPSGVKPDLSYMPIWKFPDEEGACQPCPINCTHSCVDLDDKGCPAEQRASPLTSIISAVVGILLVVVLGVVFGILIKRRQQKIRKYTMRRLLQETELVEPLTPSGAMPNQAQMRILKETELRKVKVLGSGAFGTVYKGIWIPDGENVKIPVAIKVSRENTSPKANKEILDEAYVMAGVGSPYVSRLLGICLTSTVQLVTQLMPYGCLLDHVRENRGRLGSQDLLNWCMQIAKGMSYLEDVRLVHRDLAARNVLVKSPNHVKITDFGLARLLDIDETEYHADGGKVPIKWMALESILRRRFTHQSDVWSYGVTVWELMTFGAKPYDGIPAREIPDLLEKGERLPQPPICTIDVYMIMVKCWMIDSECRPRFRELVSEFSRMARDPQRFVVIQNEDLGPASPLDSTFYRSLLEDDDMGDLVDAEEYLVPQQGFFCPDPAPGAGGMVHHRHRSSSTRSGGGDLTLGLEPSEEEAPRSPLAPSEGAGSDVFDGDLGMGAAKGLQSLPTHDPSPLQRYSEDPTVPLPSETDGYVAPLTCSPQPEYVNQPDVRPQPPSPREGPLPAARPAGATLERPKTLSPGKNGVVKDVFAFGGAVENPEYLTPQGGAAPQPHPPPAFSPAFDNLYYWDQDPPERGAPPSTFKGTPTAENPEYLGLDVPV
Chain of EGFR WT (P00533 25-1210): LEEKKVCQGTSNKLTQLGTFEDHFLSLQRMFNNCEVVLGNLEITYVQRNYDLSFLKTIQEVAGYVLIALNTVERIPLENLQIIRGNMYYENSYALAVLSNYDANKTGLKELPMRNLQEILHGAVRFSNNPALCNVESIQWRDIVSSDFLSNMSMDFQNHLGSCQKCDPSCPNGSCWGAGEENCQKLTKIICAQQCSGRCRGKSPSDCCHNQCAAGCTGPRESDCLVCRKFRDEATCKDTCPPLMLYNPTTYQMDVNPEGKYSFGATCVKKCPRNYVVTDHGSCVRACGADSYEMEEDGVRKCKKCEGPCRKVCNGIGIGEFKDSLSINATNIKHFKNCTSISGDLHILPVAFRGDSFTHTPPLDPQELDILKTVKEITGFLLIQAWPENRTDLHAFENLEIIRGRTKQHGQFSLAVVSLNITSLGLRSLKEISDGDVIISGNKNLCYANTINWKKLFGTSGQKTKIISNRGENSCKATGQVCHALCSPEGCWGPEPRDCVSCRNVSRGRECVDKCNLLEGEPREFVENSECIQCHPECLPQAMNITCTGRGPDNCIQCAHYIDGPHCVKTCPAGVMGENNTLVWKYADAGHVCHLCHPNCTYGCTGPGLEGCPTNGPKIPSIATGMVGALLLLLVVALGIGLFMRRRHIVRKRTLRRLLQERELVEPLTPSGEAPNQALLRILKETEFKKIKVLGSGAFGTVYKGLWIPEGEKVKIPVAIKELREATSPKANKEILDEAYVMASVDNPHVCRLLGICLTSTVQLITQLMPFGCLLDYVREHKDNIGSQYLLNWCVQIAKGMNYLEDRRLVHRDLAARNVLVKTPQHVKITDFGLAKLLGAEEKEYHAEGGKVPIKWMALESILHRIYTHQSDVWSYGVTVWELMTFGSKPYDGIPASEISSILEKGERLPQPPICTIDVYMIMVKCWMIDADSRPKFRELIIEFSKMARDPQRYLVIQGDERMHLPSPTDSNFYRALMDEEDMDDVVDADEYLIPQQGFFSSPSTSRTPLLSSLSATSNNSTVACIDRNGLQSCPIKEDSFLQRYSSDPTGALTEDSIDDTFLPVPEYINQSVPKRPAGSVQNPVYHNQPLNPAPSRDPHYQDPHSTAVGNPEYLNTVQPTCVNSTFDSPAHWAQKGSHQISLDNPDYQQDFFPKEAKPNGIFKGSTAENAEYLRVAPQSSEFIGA
Chain of EGFR wild type (P00533 25-1210): as above
Chain of ErbB2 V777L (P04626 23-1255 V777L): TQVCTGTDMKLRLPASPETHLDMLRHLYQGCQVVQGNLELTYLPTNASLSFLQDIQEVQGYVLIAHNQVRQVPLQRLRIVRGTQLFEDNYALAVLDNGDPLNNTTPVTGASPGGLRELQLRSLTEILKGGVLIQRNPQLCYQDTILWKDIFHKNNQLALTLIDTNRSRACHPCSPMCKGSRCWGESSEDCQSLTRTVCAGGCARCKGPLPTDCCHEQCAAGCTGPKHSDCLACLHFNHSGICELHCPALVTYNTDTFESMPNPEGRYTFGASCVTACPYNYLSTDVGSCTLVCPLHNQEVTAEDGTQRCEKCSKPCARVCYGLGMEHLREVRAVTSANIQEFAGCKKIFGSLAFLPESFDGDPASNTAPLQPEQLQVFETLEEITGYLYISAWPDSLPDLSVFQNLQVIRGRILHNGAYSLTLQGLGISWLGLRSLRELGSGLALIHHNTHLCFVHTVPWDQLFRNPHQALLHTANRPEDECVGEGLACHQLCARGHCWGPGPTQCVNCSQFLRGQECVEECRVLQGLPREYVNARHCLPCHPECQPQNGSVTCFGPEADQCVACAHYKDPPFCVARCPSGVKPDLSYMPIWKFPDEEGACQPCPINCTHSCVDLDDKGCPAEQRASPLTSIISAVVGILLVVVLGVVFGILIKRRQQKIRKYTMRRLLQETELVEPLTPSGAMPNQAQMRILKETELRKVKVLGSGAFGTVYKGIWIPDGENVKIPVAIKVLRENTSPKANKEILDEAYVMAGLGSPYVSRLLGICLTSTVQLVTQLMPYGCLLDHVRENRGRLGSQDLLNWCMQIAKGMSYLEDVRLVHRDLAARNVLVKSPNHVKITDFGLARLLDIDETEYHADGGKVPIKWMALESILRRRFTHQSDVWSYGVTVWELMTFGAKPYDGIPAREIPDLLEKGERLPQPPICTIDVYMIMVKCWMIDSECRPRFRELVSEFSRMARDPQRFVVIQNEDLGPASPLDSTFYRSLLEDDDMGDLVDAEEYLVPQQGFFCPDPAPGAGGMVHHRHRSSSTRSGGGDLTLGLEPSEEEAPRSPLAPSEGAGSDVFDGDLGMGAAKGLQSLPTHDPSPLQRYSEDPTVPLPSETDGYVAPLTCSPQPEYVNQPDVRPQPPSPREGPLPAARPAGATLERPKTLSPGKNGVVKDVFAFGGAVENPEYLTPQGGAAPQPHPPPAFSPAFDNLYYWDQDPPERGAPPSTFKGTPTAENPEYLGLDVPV

Row | SMILES | IC50 (ErbB2 V777L) | IC50 (EGFR WT) | IC50 (EGFR wild type) | IC50 (ErbB2 mutant L755S)
1 | C=CC(=O)N1C2CC1CN(c1ccc3ncnc(Nc4ccc(Oc5ccc6c(c5)nnn6C)c(C)c4)c3n1)C2 [Compound 93, 1-(3-(4-((3-methyl-4-((1-methyl-1H-benzo[d][1,2,3]triazol-5-yl)oxy)phenyl)amino)pyrido[3,2-d]pyrimidin-6-yl)-3,6-diazabicyclo[3.1.1]heptan-6-yl)prop-2-en-1-one] | 50 to 100 nM | 100 to 500 nM | ≥ 5000 nM | < 100 nM
2 | C=CC(=O)N1CCN(c2ncc3ncnc(Nc4ccc(Oc5ccc6c(c5)ncn6C(F)F)c(C)c4F)c3n2)CC1 [Compound 21, 1-(4-(8-((4-((1-(difluoromethyl)-1H-benzo[d]imidazol-5-y1)oxy)-2-fluoro-3-methylphenyl)amino)pyrimido[5,4-d]pyrimidin-2-yl)piperazin-1-yl)prop-2-en-1-one] | – | < 50 nM | 1000 to 5000 nM | –
3 | C=CC(=O)N1CCN(c2ncc3ncnc(Nc4ccc(Oc5ccn6ncnc6c5)c(C)c4F)c3c2F)CC1 [Compound 101, 1-(4-(4-((4-([1,2,4]triazolo[1,5-a]pyridin-7-yloxy)-2-fluoro-3-methylphenyl)amino)-5-fluoropyrido[3,4-d]pyrimidin-6-yl)piperazin-1-yl)prop-2-en-1-one] | 100 to 500 nM | 100 to 500 nM | ≥ 5000 nM | 100 to 500 nM
4 | C=CC(=O)N1CCC2(C1)CN(c1ncc3ncnc(Nc4ccc(Oc5ccc6c(c5)nnn6C)c(C)c4)c3n1)C2 [Compound 15, 1-(2-(8-((3-methyl-4-((1-methyl-1H-benzo[d][1,2,3]triazol-5-yl)oxy)phenyl)amino)pyrimido[5,4-d]pyrimidin-2-yl)-2,6-diazaspiro[3.4]octan-6-yl)prop-2-en-1-one] | 500 to 1000 nM | ≥ 1000 nM | ≥ 5000 nM | 500 to 1000 nM
5 | C=CC(=O)N1CC=C(c2ccc3ncnc(Nc4ccc(Oc5ccc6c(c5)nnn6C)c(C)c4)c3n2)CC1 [Compound 109, 1-(4-(4-((3-methyl-4-((1-methyl-1H-benzo[d][1,2,3]triazol-5-yl)oxy)phenyl)amino)pyrido[3,2-d]pyrimidin-6-yl)-3,6-dihydropyridin-1(2H)-yl)prop-2-en-1-one trifluoroacetate] | – | 100 to 500 nM | ≥ 5000 nM | –
6 | C=CC(=O)N1C2CCC1CN(c1ccc3ncnc(Nc4ccc(Oc5ccc6c(c5)nnn6C)c(C)c4)c3n1)C2 [Compound 70, 1-(3-(4-((3-methyl-4-((1-methyl-1H-benzo[d][1,2,3]triazol-5-yl)oxy)phenyl)amino)pyrido[3,2-d]pyrimidin-6-yl)-3,8-diazabicyclo[3.2.1]octan-8-yl)prop-2-en-1-one] | – | 100 to 500 nM | 1000 to 5000 nM | –
7 | C=CC(=O)N1CCN(c2ccc3ncnc(Nc4ccc(Oc5ccc6c(c5)nnn6C)c(C)c4F)c3n2)CC1 [Compound 95, 1-(4-(4-((2-fluoro-3-methyl-4-((1-methyl-1H-benzo[d][1,2,3]triazol-5-yl)oxy)phenyl)amino)pyrido[3,2-d]pyrimidin-6-yl)piperazin-1-yl)prop-2-en-1-one] | – | < 50 nM | ≥ 5000 nM | –
8 | C=CC(=O)N1C2CCC1CN(c1ncc3ncnc(Nc4cc(C)c(Oc5cc(F)c6c(c5)ncn6C)cc4OC)c3n1)C2 [Compound 42, 1-(3-(8-((4-((7-fluoro-1-methyl-1H-benzo[d]imidazol-5-yl)oxy)-2-methoxy-5-methylphenyl)amino)pyrimido[5,4-d]pyrimidin-2-y1)-3,8-diazabicyclo[3.2.1]octan-8-yl)prop-2-en-1-one] | – | 100 to 500 nM | ≥ 5000 nM | –
9 | C=CC(=O)N1CC=C(c2ccc3ncnc(Nc4ccc(Oc5ccc6c(c5)nnn6C)c(C)c4)c3n2)C1 [Compound 110, 1-(3-(4-((3-methyl-4-((1-methyl-1H-benzo[d][1,2,3]triazol-5-yl)oxy)phenyl)amino)pyrido[3,2-d]pyrimidin-6-yl)-2,5-dihydro-1H-pyrrol-1-yl)prop-2-en-1-one] | – | 50 to 100 nM | ≥ 5000 nM | –
10 | C=CC(=O)N1CCC(Sc2ncc3ncnc(Nc4ccc(Oc5ccc6c(c5)ncn6C)c(C)c4F)c3n2)CC1 [Compound 107, 1-(4-((8-((2-fluoro-3-methyl-4-((1-methyl-1H-benzo[d]imidazol-5-yl)oxy)phenyl)amino)pyrimido[5,4-d]pyrimidin-2-yl)thio)piperidin-1-yl)prop-2-en-1-one] | 50 to 100 nM | – | ≥ 5000 nM | 100 to 500 nM
11 | C=CC(=O)N1CCN(c2ccc3ncnc(Nc4ccc(Oc5ccc6c(c5)nnn6C)c(C)c4)c3n2)[C@@H](C)C1 [Compound 90, (S)-1-(3-methyl-4-(4-((3-methyl-4-((1-methyl-H-benzo[d][1,2,3]triazol-5-yl)oxy)phenyl)amino)pyrido[3,2-d]pyrimidin-6-yl)piperazin-1-yl)prop-2-en-1-one 2,2,2-trifluoroacetate] | – | 100 to 500 nM | ≥ 5000 nM | –
12 | C=CC(=O)N1CCN(c2ncc3ncnc(Nc4ccc(Oc5ccc6c(c5)nnn6C)c(C)c4)c3n2)C[C@@H]1CO [Compound 25, (R)-1-(2-(hydroxymethyl)-4-(8-((3-methyl-4-((1-methyl-1H-benzo[d][1,2,3]triazol-5-yl)oxy)phenyl)amino)pyrimido[5,4-d]pyrimidin-2-y1)piperazin-1-yl)prop-2-en-1-one] | – | 100 to 500 nM | ≥ 5000 nM | –
13 | C=CC(=O)N1CCN(c2ncc3ncnc(Nc4cc(C)c(Oc5ccc6c(c5)ncn6C)cc4OC)c3n2)CC1 [Compound 11, 1-(4-(8-((2-methoxy-5-methyl-4-((1-methyl-1H-benzo[d]imidazol-5-yl)oxy)phenyl)amino)pyrimido[5,4-d]pyrimidin-2-yl)piperazin-1-yl)prop-2-en-1-one 2,2,2-trifluoroacetate] | – | 100 to 500 nM | ≥ 5000 nM | –
14 | C=CC(=O)N1CCN(c2ncc3ncnc(Nc4ccc(Oc5cc(F)c6c(c5)nnn6C)c(C)c4)c3n2)CC1 [Compound 4, 1-(4-(8-((4-((7-fluoro-1-methyl-1H-benzo[d][1,2,3]triazol-5-yl)oxy)-3-methylphenyl)amino)pyrimido[5,4-d]pyrimidin-2-yl)piperazin-1-yl)prop-2-en-1-one] | – | < 50 nM | 1000 to 5000 nM | –
15 | C=CC(=O)N1CCN(c2ccc3ncnc(Nc4ccc(Oc5cnc6c(c5)ncn6C(F)F)c(C)c4F)c3n2)C[C@H]1C [Compound 261, (R)-1-(4-(4-((4-((3-(difluoromethyl)-3H-imidazo[4,5-b]pyridin-6-yl)oxy)-2-fluoro-3-methylphenyl)amino)pyrido[3,2-d]pyrimidin-6-yl)-2-methylpiperazin-1-yl)prop-2-en-1-one] | 100 to 500 nM | < 50 nM | – | –
16 | C=CC(=O)N1CC=C(c2ncc3ncnc(Nc4ccc(Oc5ccn6ncnc6c5)c(C)c4F)c3n2)C[C@@H]1C [Compound 404, (S)-1-(4-(8-((4-([1,2,4]triazolo[1,5-a]pyridin-7-yloxy)-2-fluoro-3-methylphenyl)amino)pyrimido[5,4-d]pyrimidin-2-yl)-2-methyl-3,6-dihydropyridin-1(2H)-yl)prop-2-en-1-one] | 100 to 500 nM | 100 to 500 nM | – | –
17 | C=CC(=O)N1CCN(c2ncc3ncnc(Nc4ccc(Oc5ccc6c(c5)nnn6C)c(C)c4F)c3n2)CC[C@@H]1C [Compound 169, (S)-1-(4-(8-((2-fluoro-3-methyl-4-((1-methyl-1H-benzo[d][1,2,3]triazol-5-yl)oxy)phenyl)amino)pyrimido[5,4-d]pyrimidin-2-y1)-7-methyl-1,4-diazepan-1-yl)prop-2-en-1-one] | 100 to 500 nM | 500 to 1000 nM | – | –
18 | C=CC(=O)N1CCN(c2ncc3ncnc(Nc4ccc(Oc5ccc6c(c5)nnn6C)c(C)c4F)c3n2)C2CC21 (stereo not shown) [Compound 48, 1-(5-(8-((2-fluoro-3-methyl-4-((1-methyl-1H-benzo[d][1,2,3]triazol-5-yl)oxy)phenyl)amino)pyrimido[5,4-d]pyrimidin-2-yl)-2,5-diazabicyclo[4.1.0]heptan-2-yl)prop-2-en-1-one] | < 50 nM | < 50 nM | – | –
